Consider 3 compounds from patent publication US9883996B2, “Methods and compositions for enhancing skin pigmentation” (THE GENERAL HOSPITAL CORPORATION, priority 2014, dated 2018).

As a reminder, the IC50 is the concentration needed to halve the response being measured. A lower IC50 goes with greater potency in that assay.

One series concerns human skin. In words: Cyclobutane dimer (CPD) staining of treated human skin, DNA damage. It is filed as cell-based. The note with it: 50 mM once per day for 5 days; for CPD formation after UVB irradiation: then 1000 mJ/cm^2 UVB, vs DMSO+UVB control. The protocol:
Cyclobutane dimer (CPD) staining was performed on human skin treated with 50 mM 2,3butanedione for 5 consecutive days (treatment once per day) as a marker to assess DNA damage in the skin samples. On the fifth day, skin was irradiated with 1000 mJ/cm^2 UVB (equivalent to approximately 3 h in the sun at equatorial areas).

Another series concerns Dermal Fibroblasts. In words: Toxicity via ATP-based assay (Cell titer glow). The note with it: ATP-based assay 2 days after start of treatment. On the technique in general: ATP-based viability assays read luminescence as a measure of living cells.
The subject of the next series is Keratinocytes. In words: Toxicity via ATP-based assay (Cell titer glow). The following applies: ATP-based assay 2 days after start of treatment.
In a further series the test system is Melan-A cells. Nature of the series: Measurement of eumelanin in murine melanocytes. It counts as cell-based.
In series [1] the test system is human skin explants. In words: Pigmentation of human skin explants treated topically or intradermally with NNT inhibitors (visual inspection, colorimeter, Fontana-Masson staining). It is filed as cell-based. The note with it: for microscopic pigmentation / eumelanin, Fontana-Masson staining: 50 mM, once per day for 5 consecutive days; for human skin pigmentation (darkening): daily application for 5 days. The protocol:
Human skin explants obtained from subjects undergoing abdominoplasty were defatted and grown on 2% agar plates for 10 days. These explants were treated topically or intradermally with NNT inhibitors. […]
In addition, skin patches (Fitzpatrick Type II) were topically treated for 4 days with 2,3 butane-dione at the following concentrations: 0.4% w/v (˜47 mM), 0.8% w/v, 1.6% w/v, 3.12% w/v, 6.25% w/v, 12.5% w/v, and 25% w/v.

Series [2] deals with human skin explants. Nature of the series: H&E staining of treated skin samples (inflammation, skin damage). It counts as cell-based. The note with it: 50 mM, skin patches.
For the next series, the system named is Melanocytes 1. Nature of the series: Toxicity via ATP-based assay (Cell titer glow). The following applies: ATP-based assay 2 days after start of treatment. The method, then:
(§1) Three different NNT inhibitors were tested for efficacy and toxicity in melanocytes and melanoma cells. […] Toxicity measured via ATP-based assays (Cell titer glow) 2 days after start of treatment.

The test system of the next series is Melanocytes 2. In words: Toxicity via ATP-based assay (Cell titer glow). The note with it: ATP-based assay 2 days after start of treatment. The method, then:
as §1

In series [3] the test system is primary melanocytes (PM) WM26 cells. In words: GSH/GSSG measurements after DCC treatment. It is filed as cell-based, human. The following applies: primary melanocytes WM26, 3 days after DCC treatment. The method, then: (§2) FIGS. 7A-7C show GSH/GSSG ratios 3 days after N,N-Dicyclohexylcarbodiimide (DCC) treatment. To confirm the observation by Moody et al. (Biochem J., 1983) that DCC and Butanedione inhibit NNT enzyme activity, GSH/GSSG measurements were performed in human melanoma and primary melanocytes. […] FIG. 7A, GSH and GSSG measurements in UACC257 melanoma cells. FIG. 7B, GSH and GSSG measurements in primary melanocytes (PM) WM26 cells. FIG. 7C, GSH/GSSG ratios of UACC257 melanoma and […] primary melanocytes. *, indicates significant differences (p<0.05).
(§3) In one embodiment GSH/GSSG ratios are determined using the GSH/GSSG-GLO assay commercially available from PROMEGA.

The subject of a further series is UACC257 melanoma cells. Nature of the series: GSH/GSSG measurements after DCC treatment. It counts as cell-based, human. The note with it: 3 days after DCC treatment. The method, then: as §2, §3
The next series has as its system UACC 257 melanoma. In words: BrdU ELISA toxicity. It counts as cell-based, human. The note with it: 3 days after treatment. The protocol: (§4) FIGS. 8A-8B show BrdU ELISA data 3 days after DCC treatment.
(§5) In one embodiment, the viability of a cell or the proliferation of a cell is determined using a bromodeoxyuridine (BrdU) assay. BrdU is a synthetic analog of thymidine that is commonly used in the detection of proliferating cells in living tissues. BrdU can be incorporated into the newly synthesized DNA of replicating cells (during the S phase of the cell cycle), substituting for thymidine during DNA replication. Antibodies specific for BrdU can then be used to detect the incorporated chemical, thus indicating cells that were actively replicating their DNA. BrdU assays are well known to those of skill in the art and are not described in detail herein. In some embodiments, an ATP=based measurement can be used (e.g., Cell Titer Glow™).

The subject of the next series is WM26 primary melanocytes. In words: BrdU ELISA toxicity. It counts as cell-based, human. The following applies: 3 days after treatment. The protocol:
as §4, §5
(In general: Incorporation of labelled thymidine or its analogues reports DNA synthesis.)

Structures are written as SMILES. Entries after “also recorded” stand apart in the source; their conditions may differ. A value given as a limit tells only on which side of the number the result lay.

Regarding `CC(=O)C(C)=O` [2,3 Butanedione, 2,3-butanedione], the “CPD formation after UVB irradiation” value in the series on human skin (listed as 2, 3, butanedione) is “decrease in CPD”; with human skin (listed as 2,3BD), “protective role”. For the same compound, the “CPD formation in the absence of UV radiation exposure” value in the series with human skin (vs DMSO treated control) is “decrease in CPD formation”. In addition, the IC50 is over 10 µM in the series with Dermal Fibroblasts (Fibroblast, 48 h); over 10 µM with Keratinocytes (Keratinocyte, 48 h); over 10 µM with Melanocytes 1 (Melanocyte, 48 h); over 10 µM in the series with Melanocytes 2 (Melanocyte, 48 h). The “pigmentation (eumelanin)” value in the series with Melan-A cells (2 mM) and in the series on Melan-A cells (10 mM) was “increased pigmentation” in each case. Also, the “microscopic pigmentation / eumelanin, Fontana-Masson staining” value in the series on human skin explants [1] was “increase in eumelanin expression”; in the series with human skin explants [1] (listed as 2,3 BD), “significant microscopic pigmentation”. In the series with human skin explants [1] (Fitzpatrick Type II skin patches, topical 4 days, lowest concentration 0.4% w/v (~47 mM)), the “pigmentation compared with one-time UV-B treatment at 150 mJ/cm^2” value is recorded as “darker than the pigmentation induced by a one-time UV-B treatment”. For the same compound, the “pigmentation with increasing concentrations” value in the series on human skin explants [1] (Skin type 2 (Fitzpatrick Scale) explant, in DMSO) was “increase pigmentation”. The “lowest dose at which visible changes in skin pigmentation were observed” value in the series with human skin explants [1] (once per day for five consecutive days, all three skin types (Fitzpatrick I-II, III-IV, V-VI), lowest dose tested) amounted to 1.2 µM. Further, the “human skin pigmentation (darkening)” value is given as “visible increase of human skin pigmentation” with human skin explants [1] (topical, human skin explants) and “significant darkening” in the series on human skin explants [1] (topical, human skin explants, listed as 2,3 BD). Moreover, the “inflammation or skin damage, H&E staining” value is “no inflammation was observed” with human skin explants [2] and “No significant inflammation or skin damage” with human skin explants [2] (listed as 2,3 BD).

Regarding `C(=NC1CCCCC1)=NC1CCCCC1` [DCC, N,N-Dicyclohexylcarbodiimide], the GSH/GSSG ratios entry (in [3]; in the series with UACC257 melanoma cells) was “decreased in a dose-dependent manner” throughout. For the same compound, the “cell death (BrdU ELISA)” value in the series with UACC 257 melanoma and in the series on WM26 primary melanocytes was “no significant induction of cell death” each time. Further, the 50% inhibitory concentration (IC50) in the series with Dermal Fibroblasts, in the series on Keratinocytes, with Melanocytes 1 and in the series with Melanocytes 2 was over 10 µM throughout. For the same compound, the “pigmentation (eumelanin)” value with Melan-A cells (10 mM) is “increased pigmentation”. For the same compound, the “human skin pigmentation (darkening)” value with human skin explants [1] (topical, human skin explants) is listed as “significant darkening; also recorded: visible increase of human skin pigmentation”.

On to `CCCCCCCCCCCCCCCC(=O)SCCNC(=O)CCNC(=O)[C@H](O)C(C)(C)COP(=O)(O)OP(=O)(O)OC[C@H]1O[C@@H](n2cnc3c(N)ncnc32)[C@H](O)[C@@H]1OP(=O)(O)O` [Palmitoyl-CoA, palmitoyl CoA], for which the half-maximal inhibitory concentration (IC50) in the series with Dermal Fibroblasts (Fibroblast, 48 h) is over 10 µM; in the series on Keratinocytes (Keratinocyte, 48 h) it was over 10 µM; with Melanocytes 1 (Melanocyte, 48 h) it was over 10 µM; in the series with Melanocytes 2 (Melanocyte, 48 h), over 10 µM. Further, the “skin darkening after intradermal treatment” value in the series on human skin explants [1] (intradermal, human skin explants) is recorded as “induced darkening”. Further, the “skin penetration after topical application” value with human skin explants [1] (topical, human skin explants) is recorded as “unable to penetrate”.
